Among the data in patent US9549932B2, “2-(morpholin-4-yl)-1,7-naphthyridines” (BAYER PHARMA AKTIENGESELLSCHAFT, priority 2014, dated 2017) are IC50 values, retold here.

The target in the experiment is full-length human ATR protein (Homo sapiens (Human), UniProt Q13535). Nature of the experiment: Binding assay ATR (TR-FRET tracer displacement). Conditions: tracer A, TR-FRET; read-out: ATR binding (tracer A) IC50. The method in brief: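 Full-length human GST-ATR co-purified with ATRIP, pre-complexed 30 min at 22 °C with anti-GST-Tb antibody, then pre-bound with compound 10 min. Tracer A or B added (2 µl of 100 nM solution), 30 min at 22 °C.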

Structures are written as SMILES.

Sequence of full-length human ATR protein (Q13535 other isoform, or with tags, fused parts or gaps): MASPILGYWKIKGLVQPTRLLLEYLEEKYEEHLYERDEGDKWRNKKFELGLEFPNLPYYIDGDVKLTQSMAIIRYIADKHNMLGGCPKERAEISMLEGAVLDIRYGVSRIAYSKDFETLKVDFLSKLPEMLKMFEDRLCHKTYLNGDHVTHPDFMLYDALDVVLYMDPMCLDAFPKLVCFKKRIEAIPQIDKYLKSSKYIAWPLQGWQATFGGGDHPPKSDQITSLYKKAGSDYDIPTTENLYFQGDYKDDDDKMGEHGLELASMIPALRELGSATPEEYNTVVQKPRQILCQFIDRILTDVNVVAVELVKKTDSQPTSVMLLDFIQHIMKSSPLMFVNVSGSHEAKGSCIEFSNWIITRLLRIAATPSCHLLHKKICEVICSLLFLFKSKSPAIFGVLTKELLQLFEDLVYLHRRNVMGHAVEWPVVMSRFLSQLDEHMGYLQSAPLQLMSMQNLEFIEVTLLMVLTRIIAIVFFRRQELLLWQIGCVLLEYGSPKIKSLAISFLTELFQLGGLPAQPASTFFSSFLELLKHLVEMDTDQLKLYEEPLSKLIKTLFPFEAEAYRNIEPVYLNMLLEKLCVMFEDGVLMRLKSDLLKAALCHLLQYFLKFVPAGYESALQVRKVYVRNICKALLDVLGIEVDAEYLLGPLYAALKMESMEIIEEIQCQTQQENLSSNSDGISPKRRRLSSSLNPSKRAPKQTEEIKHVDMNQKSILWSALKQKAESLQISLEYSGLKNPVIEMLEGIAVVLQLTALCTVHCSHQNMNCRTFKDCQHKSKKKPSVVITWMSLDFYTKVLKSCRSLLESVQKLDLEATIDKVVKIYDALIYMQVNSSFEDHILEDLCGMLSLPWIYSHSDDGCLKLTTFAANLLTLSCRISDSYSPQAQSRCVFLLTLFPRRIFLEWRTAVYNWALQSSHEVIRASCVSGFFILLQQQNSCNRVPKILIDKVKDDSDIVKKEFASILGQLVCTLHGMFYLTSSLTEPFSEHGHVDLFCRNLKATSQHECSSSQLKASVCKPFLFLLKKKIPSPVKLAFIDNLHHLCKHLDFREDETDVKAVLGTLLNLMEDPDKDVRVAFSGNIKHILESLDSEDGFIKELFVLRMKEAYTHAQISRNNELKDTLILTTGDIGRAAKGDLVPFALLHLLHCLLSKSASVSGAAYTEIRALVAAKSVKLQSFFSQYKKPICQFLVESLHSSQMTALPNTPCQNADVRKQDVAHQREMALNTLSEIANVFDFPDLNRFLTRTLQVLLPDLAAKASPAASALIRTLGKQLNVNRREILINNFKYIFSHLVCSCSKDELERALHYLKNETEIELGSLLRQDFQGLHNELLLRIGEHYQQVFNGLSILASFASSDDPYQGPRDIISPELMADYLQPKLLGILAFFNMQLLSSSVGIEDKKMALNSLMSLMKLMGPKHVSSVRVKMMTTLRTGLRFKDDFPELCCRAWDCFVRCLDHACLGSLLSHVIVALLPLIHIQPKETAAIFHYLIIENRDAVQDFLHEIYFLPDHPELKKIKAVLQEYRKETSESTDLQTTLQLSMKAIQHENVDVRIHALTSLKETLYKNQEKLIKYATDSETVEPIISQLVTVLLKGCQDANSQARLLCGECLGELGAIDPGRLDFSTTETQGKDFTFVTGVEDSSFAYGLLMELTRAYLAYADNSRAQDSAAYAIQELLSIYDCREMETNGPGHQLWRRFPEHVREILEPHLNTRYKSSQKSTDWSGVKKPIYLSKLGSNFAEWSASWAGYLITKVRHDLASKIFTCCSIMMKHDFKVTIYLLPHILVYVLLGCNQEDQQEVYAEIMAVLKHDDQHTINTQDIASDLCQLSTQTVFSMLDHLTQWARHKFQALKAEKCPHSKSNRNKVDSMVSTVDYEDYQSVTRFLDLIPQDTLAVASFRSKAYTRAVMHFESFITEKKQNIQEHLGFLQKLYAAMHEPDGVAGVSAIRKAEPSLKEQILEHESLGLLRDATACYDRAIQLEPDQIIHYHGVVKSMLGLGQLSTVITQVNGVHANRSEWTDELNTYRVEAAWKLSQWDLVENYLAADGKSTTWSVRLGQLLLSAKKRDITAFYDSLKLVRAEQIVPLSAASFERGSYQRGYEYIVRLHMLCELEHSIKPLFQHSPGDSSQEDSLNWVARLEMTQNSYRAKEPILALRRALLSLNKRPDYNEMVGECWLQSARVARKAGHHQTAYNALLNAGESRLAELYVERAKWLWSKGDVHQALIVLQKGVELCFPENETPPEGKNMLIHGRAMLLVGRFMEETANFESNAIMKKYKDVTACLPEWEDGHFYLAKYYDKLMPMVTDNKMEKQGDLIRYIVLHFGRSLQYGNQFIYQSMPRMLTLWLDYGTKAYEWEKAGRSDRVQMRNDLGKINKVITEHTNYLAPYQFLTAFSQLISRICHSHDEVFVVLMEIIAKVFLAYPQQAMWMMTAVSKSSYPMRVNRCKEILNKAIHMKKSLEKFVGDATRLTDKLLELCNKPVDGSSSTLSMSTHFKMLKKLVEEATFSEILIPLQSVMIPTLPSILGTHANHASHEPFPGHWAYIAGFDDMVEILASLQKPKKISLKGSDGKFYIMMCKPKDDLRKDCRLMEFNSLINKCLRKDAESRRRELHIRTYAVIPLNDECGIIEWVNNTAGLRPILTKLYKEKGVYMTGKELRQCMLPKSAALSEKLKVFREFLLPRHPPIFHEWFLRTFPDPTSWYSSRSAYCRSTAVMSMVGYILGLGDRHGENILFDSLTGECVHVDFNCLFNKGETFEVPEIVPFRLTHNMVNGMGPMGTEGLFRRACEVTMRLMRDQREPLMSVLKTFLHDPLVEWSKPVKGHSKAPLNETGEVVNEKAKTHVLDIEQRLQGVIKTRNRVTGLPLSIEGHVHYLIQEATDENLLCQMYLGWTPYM
Sequence of full-length human ATR protein (Q8WXE1 other isoform, or with tags, fused parts or gaps partner): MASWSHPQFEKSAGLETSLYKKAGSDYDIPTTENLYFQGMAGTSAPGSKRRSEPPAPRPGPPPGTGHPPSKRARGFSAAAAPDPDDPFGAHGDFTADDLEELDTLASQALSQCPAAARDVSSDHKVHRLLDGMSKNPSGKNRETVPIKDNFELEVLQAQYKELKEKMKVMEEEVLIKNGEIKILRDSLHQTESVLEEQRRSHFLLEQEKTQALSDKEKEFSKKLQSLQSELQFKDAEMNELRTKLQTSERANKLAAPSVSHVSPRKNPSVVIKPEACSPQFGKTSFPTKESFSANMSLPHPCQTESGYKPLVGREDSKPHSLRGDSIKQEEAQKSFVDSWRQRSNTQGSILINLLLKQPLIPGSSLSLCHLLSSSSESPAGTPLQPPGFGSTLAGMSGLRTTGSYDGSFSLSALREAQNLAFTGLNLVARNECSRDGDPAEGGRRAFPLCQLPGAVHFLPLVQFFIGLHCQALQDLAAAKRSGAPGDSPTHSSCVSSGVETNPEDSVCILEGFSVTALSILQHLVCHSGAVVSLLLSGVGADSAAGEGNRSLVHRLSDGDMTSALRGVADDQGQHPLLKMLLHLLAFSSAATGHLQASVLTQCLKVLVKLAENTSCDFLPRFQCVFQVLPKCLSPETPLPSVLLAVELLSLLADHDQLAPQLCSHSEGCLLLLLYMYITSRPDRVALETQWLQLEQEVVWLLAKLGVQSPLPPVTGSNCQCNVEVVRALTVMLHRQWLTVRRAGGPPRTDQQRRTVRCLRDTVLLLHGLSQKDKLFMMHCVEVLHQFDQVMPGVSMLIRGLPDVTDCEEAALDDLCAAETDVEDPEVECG

Regarding `O=S(=O)(c1ccccc1)c1cc(N2CCOCC2)nc2c(-c3ccn[nH]3)nccc12` [Example 198, 2-(morpholin-4-yl)-4-(phenylsulfonyl)-8-(1H-pyrazol-5-yl)-1,7-naphthyridine], the IC50 was found to be 0.293 µM.

Regarding `CC(C)S(=O)(=O)c1cc(N2CCOCC2)nc2c(-c3ccn[nH]3)nccc12` [Example 199, 2-(morpholin-4-yl)-4-(propan-2-ylsulfonyl)-8-(1H-pyrazol-5-yl)-1,7-naphthyridine], the IC50 was found to be 0.138 µM. To `CCS(=O)(=O)c1cc(N2CCOCC2)nc2c(-c3ccn[nH]3)nccc12` [Example 200, 4-(ethylsulfonyl)-2-(morpholin-4-yl)-8-(1H-pyrazol-5-yl)-1,7-naphthyridine] belongs 0.0869 µM; to `[O-][S+](c1ccccc1)c1cc(N2CCOCC2)nc2c(-c3ccn[nH]3)nccc12` (centres unmarked) [Example 201, 2-(morpholin-4-yl)-4-(phenylsulfinyl)-8-(1H-pyrazol-5-yl)-1,7-naphthyridine], 0.04 µM. `C[S+]([O-])c1cc(N2CCOCC2)nc2c(-c3ccn[nH]3)nccc12` (centres unmarked) [Example 202, 4-(methylsulfinyl)-2-(morpholin-4-yl)-8-(1H-pyrazol-5-yl)-1,7-naphthyridine]: the IC50 amounted to 0.0783 µM. `C[C@@H]1COCCN1c1cc(C2CC[S+]([O-])CC2)c2ccnc(-c3ccn[nH]3)c2n1` (stereo partly drawn) [Example 203, 2-[(3R)-3-methylmorpholin-4-yl]-4-[1-oxidotetrahydro-2H-thiopyran-4-yl]-8-(1H-pyrazol-5-yl)-1,7-naphthyridine]: the IC50 was found to be 0.0113 µM.

As to `C[C@@H]1COCCN1c1cc(C2CCS(=O)(=O)CC2)c2ccnc(-c3ccn[nH]3)c2n1` [Example 204, 4-(1,1-dioxidotetrahydro-2H-thiopyran-4-yl)-2-[(3R)-3-methylmorpholin-4-yl]-8-(1H-pyrazol-5-yl)-1,7-naphthyridine], the IC50 was 0.00676 µM. For `C[C@@H]1COCCN1c1cc(-c2ccn[nH]2)c2ccnc(-c3ccn[nH]3)c2n1` [Example 205, 2-[(3R)-3-methylmorpholin-4-yl]-4,8-di(1H-pyrazol-5-yl)-1,7-naphthyridine], the half-maximal inhibitory concentration (IC50) turned out to be 0.0493 µM.

Consider `CN(C)c1cc(N2CCOCC2)nc2c(-c3ccn[nH]3)nccc12` [Example 206, N,N-dimethyl-2-(morpholin-4-yl)-8-(1H-pyrazol-5-yl)-1,7-naphthyridin-4-amine], for which the concentration for half-maximal inhibition (IC50) came out at 0.404 µM. To `c1ccc(Sc2cc(N3CCOCC3)nc3c(-c4ccn[nH]4)nccc23)cc1` [Example 207, 2-(morpholin-4-yl)-4-(phenylsulfanyl)-8-(1H-pyrazol-5-yl)-1,7-naphthyridine] belongs 0.542 µM; to `CC(C)Nc1cc(N2CCOCC2)nc2c(-c3ccn[nH]3)nccc12` [Example 208, 2-(morpholin-4-yl)-N-(propan-2-yl)-8-(1H-pyrazol-5-yl)-1,7-naphthyridin-4-amine], 1.16 µM. To `CCSc1cc(N2CCOCC2)nc2c(-c3ccn[nH]3)nccc12` [Example 209, 4-(ethylsulfanyl)-2-(morpholin-4-yl)-8-(1H-pyrazol-5-yl)-1,7-naphthyridine] belongs 0.385 µM. To `CC(C)Sc1cc(N2CCOCC2)nc2c(-c3ccn[nH]3)nccc12` [Example 210, 2-(morpholin-4-yl)-4-(propan-2-ylsulfanyl)-8-(1H-pyrazol-5-yl)-1,7-naphthyridine] belongs 0.231 µM; to `c1c[nH]c(-c2cc(N3CCOCC3)nc3c(-c4ccn[nH]4)nccc23)c1` [Example 211, 2-(morpholin-4-yl)-8-(1H-pyrazol-5-yl)-4-(1H-pyrrol-2-yl)-1,7-naphthyridine], 0.547 µM; to `c1cc(-c2nccc3c(-c4cc[nH]c4)cc(N4CCOCC4)nc23)[nH]n1` [Example 212, 2-(morpholin-4-yl)-8-(1H-pyrazol-5-yl)-4-(1H-pyrrol-3-yl)-1,7-naphthyridine], above 20 µM. As for `COc1ccc(Sc2cc(N3CCOCC3)nc3c(-c4ccn[nH]4)nccc23)cc1` [Example 213], the 50% inhibitory concentration (IC50) was found to be 0.0535 µM. As for `Cc1cc(-c2cc(N3CCOCC3)nc3c(-c4ccn[nH]4)nccc23)n[nH]1` [Example 214, 4-(5-methyl-1H-pyrazol-3-yl)-2-(morpholin-4-yl)-8-(1H-pyrazol-5-yl)-1,7-naphthyridine], the IC50 came out at 0.176 µM.

With `O=C1CCCN1c1cc(N2CCOCC2)nc2c(-c3ccn[nH]3)nccc12` [Example 215, 1-[2-(morpholin-4-yl)-8-(1H-pyrazol-5-yl)-1,7-naphthyridin-4-yl]pyrrolidin-2-one], the half-maximal inhibitory concentration (IC50) worked out at 0.317 µM. As for `O=C1CCCCN1c1cc(N2CCOCC2)nc2c(-c3ccn[nH]3)nccc12` [Example 217, 1-[2-(morpholin-4-yl)-8-(1H-pyrazol-5-yl)-1,7-naphthyridin-4-yl]piperidin-2-one], the IC50 was 0.802 µM. In the case of `Cc1ncccc1-c1cc(N2CCOC[C@H]2C)nc2c(-c3ccn[nH]3)nccc12` [Example 218, 2-[(3R)-3-methylmorpholin-4-yl]-4-(2-methylpyridin-3-yl)-8-(1H-pyrazol-5-yl)-1,7-naphthyridine], the IC50 was found to be 0.0118 µM. `CC(C)Oc1ncccc1-c1cc(N2CCOC[C@H]2C)nc2c(-c3ccn[nH]3)nccc12` [Example 219, 2-[(3R)-3-methylmorpholin-4-yl]-4-[2-(propan-2-yloxy)pyridin-3-yl]-8-(1H-pyrazol-5-yl)-1,7-naphthyridine]: the 50% inhibitory concentration (IC50) was 0.132 µM. Take `COc1ncccc1-c1cc(N2CCOC[C@H]2C)nc2c(-c3ccn[nH]3)nccc12` [Example 220, 4-(2-methoxypyridin-3-yl)-2-[(3R)-3-methylmorpholin-4-yl]-8-(1H-pyrazol-5-yl)-1,7-naphthyridine]: the IC50 was 0.0324 µM. For the compound `c1cc(-c2cc(N3CCOCC3)nc3c(-c4ccn[nH]4)nccc23)ccn1` [Example 221, 2-(morpholin-4-yl)-8-(1H-pyrazol-5-yl)-4-(pyridin-4-yl)-1,7-naphthyridine], the half-inhibitory concentration (IC50) came out at 0.196 µM. To `COc1ccc(Sc2cc(N3CCOC[C@H]3C)nc3c(-c4ccn[nH]4)nccc23)cc1` [Example 222] belongs 0.0502 µM. To `C[C@@H]1COCCN1c1cc(-c2ccnc(N3CCOCC3)c2F)c2ccnc(-c3ccn[nH]3)c2n1` [Example 223, 4-[3-fluoro-2-(morpholin-4-yl)pyridin-4-yl]-2-[(3R)-3-methylmorpholin-4-yl]-8-(1H-pyrazol-5-yl)-1,7-naphthyridine] belongs 0.124 µM; to `Cc1cc(-c2cc(N3CCOCC3)nc3c(-c4ccn[nH]4)nccc23)cnc1F` [Example 224, 4-(6-fluoro-5-methylpyridin-3-yl)-2-(morpholin-4-yl)-8-(1H-pyrazol-5-yl)-1,7-naphthyridine], 0.0521 µM; to `O=C1OCCCN1c1cc(N2CCOCC2)nc2c(-c3ccn[nH]3)nccc12` [Example 225, 3-[2-(morpholin-4-yl)-8-(1H-pyrazol-5-yl)-1,7-naphthyridin-4-yl]-1,3-oxazinan-2-one], 0.447 µM. Consider `O=C1OCCN1c1cc(N2CCOCC2)nc2c(-c3ccn[nH]3)nccc12` [Example 226, 3-[2-(morpholin-4-yl)-8-(1H-pyrazol-5-yl)-1,7-naphthyridin-4-yl]-1,3-oxazolidin-2-one], for which the IC50 amounted to 1.14 µM. Turning to `COc1cnccc1-c1cc(N2CCOC[C@H]2C)nc2c(-c3ccn[nH]3)nccc12` [Example 227, 4-(3-methoxypyridin-4-yl)-2-[(3R)-3-methylmorpholin-4-yl]-8-(1H-pyrazol-5-yl)-1,7-naphthyridine], the IC50 is 0.0755 µM. Consider `C[C@@H]1COCCN1c1cc(-c2ccc(F)nc2F)c2ccnc(-c3ccn[nH]3)c2n1` [Example 228, 4-(2,6-difluoropyridin-3-yl)-2-[(3R)-3-methylmorpholin-4-yl]-8-(1H-pyrazol-5-yl)-1,7-naphthyridine], for which the half-inhibitory concentration (IC50) turned out to be 0.0301 µM.

As for `C[C@@H]1COCCN1c1cc(-c2cc(Cl)cnc2F)c2ccnc(-c3ccn[nH]3)c2n1` [Example 229, 4-(5-chloro-2-fluoropyridin-3-yl)-2-[(3R)-3-methylmorpholin-4-yl]-8-(1H-pyrazol-5-yl)-1,7-naphthyridine], the IC50 is 0.0284 µM.

Consider `C[C@@H]1COCCN1c1cc(-c2ccncc2F)c2ccnc(-c3ccn[nH]3)c2n1` [Example 230, 4-(3-fluoropyridin-4-yl)-2-[(3R)-3-methylmorpholin-4-yl]-8-(1H-pyrazol-5-yl)-1,7-naphthyridine], for which the half-inhibitory concentration (IC50) turned out to be 0.0317 µM. Turning to `Cc1cc(-c2cc(N3CCOC[C@H]3C)nc3c(-c4ccn[nH]4)nccc23)cnc1C` [Example 232, 4-(5,6-dimethylpyridin-3-yl)-2-[(3R)-3-methylmorpholin-4-yl]-8-(1H-pyrazol-5-yl)-1,7-naphthyridine], the IC50 is 0.0391 µM. To `Cc1ncc(-c2cc(N3CCOC[C@H]3C)nc3c(-c4ccn[nH]4)nccc23)cc1F` [Example 233, 4-(5-fluoro-6-methylpyridin-3-yl)-2-[(3R)-3-methylmorpholin-4-yl]-8-(1H-pyrazol-5-yl)-1,7-naphthyridine] belongs 0.042 µM. `Cc1cc(-c2cc(N3CCOC[C@H]3C)nc3c(-c4ccn[nH]4)nccc23)cs1` [Example 234, 2-[(3R)-3-methylmorpholin-4-yl]-4-(5-methylthiophen-3-yl)-8-(1H-pyrazol-5-yl)-1,7-naphthyridine]: the IC50 came out at 0.0292 µM. Turning to `COc1ccsc1-c1cc(N2CCOC[C@H]2C)nc2c(-c3ccn[nH]3)nccc12` [Example 235, 4-(3-methoxythiophen-2-yl)-2-[(3R)-3-methylmorpholin-4-yl]-8-(1H-pyrazol-5-yl)-1,7-naphthyridine], the IC50 stood at 0.0213 µM. To `C[C@@H]1COCCN1c1cc(-c2ccsc2Cl)c2ccnc(-c3ccn[nH]3)c2n1` [Example 236, 4-(2-chlorothiophen-3-yl)-2-[(3R)-3-methylmorpholin-4-yl]-8-(1H-pyrazol-5-yl)-1,7-naphthyridine] belongs 0.0282 µM; to `C[C@@H]1COCCN1c1cc(-c2cncc3ccccc23)c2ccnc(-c3ccn[nH]3)c2n1` [Example 237, 4-(isoquinolin-4-yl)-2-[(3R)-3-methylmorpholin-4-yl]-8-(1H-pyrazol-5-yl)-1,7-naphthyridine], 0.0182 µM.
